The molecules below were run on Charles River CD-1 mice (assay: Intravenous acute tolerance in mice (LD50)). Details: intravenous (tail vein) at 0.02 mL/g, CD-1 mice, 14 days observation, physiologic pH.
Protocol: The relative toxicities of free metal, free ligand, metal chelate contrast agent and excipient of the present invention were determined by injecting samples of each into the tail vein of Charles River CD-1 mice (18-23 g, 25-35 days) at 0.02 mL/g. The observation period was 14 days.

SMILES	LD50
[Ca+2].[Cl-].[Cl-] [CaCl2]	1.5 mmol/kg
O=C([O-])CN1CCNCCN(CC(=O)[O-])CCN(CC(=O)[O-])CC1.O=C([O-])CN1CCNCCN(CC(=O)[O-])CCN(CC(=O)[O-])CC1.[Ca+2].[Ca+2].[Ca+2] [Ca[Ca(DO3A)]2, Calcium bis[1,4,7,10-tetraazacyclododecane-1,4,7-triacetatocalcium(II)]]	1.6 mmol/kg
CC(O)CN1CCN(CC(=O)[O-])CCN(CC(=O)[O-])CCN(CC(=O)[O-])CC1.CC(O)CN1CCN(CC(=O)[O-])CCN(CC(=O)[O-])CCN(CC(=O)[O-])CC1.[Ca+2].[Ca+2].[Ca+2] (stereo not shown) [Ca[Ca(HP-DO3A)]2, Calcium bis[1,4,7-tris(carboxymethyl)-10-(2′-hydroxy)propyl-1,4,7,10-tetraazacyclododecanato-calcium(II)]]	1.3 mmol/kg
O=C(O)CN1CCN(CC(=O)O)CCN(CC(=O)O)CCN(CC(=O)O)CC1 [DOTA, 1,4,7,10-tetraazacyclododecane-N,N′N″,N″′-tetraacetic acid]	0.18 mmol/kg
O=C([O-])CN1CCNCCN(CC(=O)[O-])CCN(CC(=O)[O-])CC1.[Gd+3] [Gd(DO3A)]	5.7 mmol/kg
CC(O)CN1CCN(CC(=O)O)CCN(CC(=O)O)CCN(CC(=O)O)CC1.[Gd+3] (stereo not shown) [Gd(HP-DO3A), Gadolinium(III) 1,4,7-tris(carboxymethyl)-10-(2′-hydroxypropyl)-1,4,7,10-tetraazacyclododecane]	10 mmol/kg
[Gd+3].[OH-].[OH-].[OH-] [Gd(OH)3]	0.1 mmol/kg

Same assay, conditions: mouse, in vivo, iv

SMILES	LD50
O=C(O)CN1CCNCCN(CC(=O)O)CCN(CC(=O)O)CC1 [DO3A, 1,4,7,10-tetraazacyclododecane-1,4,7-triacetic acid]	0.12 mmol/kg
CC(O)CN1CCN(CC(=O)O)CCN(CC(=O)O)CCN(CC(=O)O)CC1 (stereo not shown) [HP-DO3A, 1,4,7-tris-(carboxymethyl)-10-(2′-hydroxypropyl)-1,4,7,10-tetraazacyclododecane]	0.11 mmol/kg

Same assay, conditions: summary of Table 1 data, intravenous in mice

SMILES	Tolerance (in words)
O=C([O-])CN1CCNCCN(CC(=O)[O-])CCN(CC(=O)[O-])CC1.[Gd+3] [Gd(DO3A)]	highly tolerated
